Reference: patent US20030157541A1, “Regulation of human CycLT2-like GPCR protein” (Bayer Aktiengesellschaft, priority 2000, published 2003)

Biological target: T1, CysLT2 (Homo sapiens, UniProt Q9NS75)
T1 construct: expressed in transfected cells; membranes used
T1 sequence (Q9NS75 1-346): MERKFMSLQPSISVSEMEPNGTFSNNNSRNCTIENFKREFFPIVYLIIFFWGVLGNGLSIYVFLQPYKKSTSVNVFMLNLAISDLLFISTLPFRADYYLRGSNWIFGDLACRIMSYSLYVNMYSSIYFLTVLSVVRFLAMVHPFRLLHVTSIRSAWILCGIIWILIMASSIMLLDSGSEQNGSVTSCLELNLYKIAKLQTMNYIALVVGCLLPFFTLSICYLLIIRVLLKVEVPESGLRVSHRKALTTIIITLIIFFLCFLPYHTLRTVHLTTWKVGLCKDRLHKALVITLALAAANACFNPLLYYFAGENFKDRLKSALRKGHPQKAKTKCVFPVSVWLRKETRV
Assay: Competition for [^3H]LTD4-specific binding to CysLT2 membranes
Description: Membrane preparation for CysLT2 receptor binding assay. Peak stable cells transformed with CysLT2 expression vector were maintained in D-MEM supplemented with 10% FCS and 2 μg/ml of puromycin. Cells were collected and kept at −80° C. until membrane preparation. Frozen cells were suspended in cold membrane preparation buffer (50 mM Tris-HCl pH 7.5, protease inhibitor mixture(#1873580, Roche)), and disrupted with Polytron (Cat.#PT10-35, Kinematica AG, Switzerland). Disrupted cells were centrifuged at 500×g for 5 minutes at 4° C. to remove the nuclear fraction, and supernatants were applied to high speed centrifugation (45,000×g, 15 minutes, 4° C.) to precipitate membrane fraction. After the supernatant was removed, membrane preparation buffer were added to the pellet and homogenized gently on ice. Glycerol (final conc.;10%) and bovine serum albumin (final conc.:0.5%, Cat#A-3059, Sigma) were added to the membrane suspension as stabilizer. Membrane suspension was then divided into small vials and frozen in liquid nitrogen. After 1 hour freezing, vials were kept at −80° C. until use.
At the end of the binding reaction, 100 μl of the reaction mixture was transferred to a 96-well filtration plate (Cat.#MAFB-N0B, Millipore), and washed 3 times with 200 μl/well of cold binding buffer. […] The specific binding (total binding—non-specific binding) was measured by liquid scintillation counter (TopCount™, Packard) and expressed as the relative binding (%) in the figure.
Inhibition assay using several antagonists.

Q: `O=C(O)CCCNC(=O)c1cc(C(=O)O)ccc1OCCCc1ccc(OCCCCOc2ccccc2)cc1` [Bay y8934] was tested. Which IC50 did it give?
A: 1000 nM

Q: Which IC50 does the source give for `CCOC(=O)c1cn(-c2ccc(C3=CC(F)(F)C3(F)F)cc2)c2cc(F)c(F)cc2c1=O` [Bay y9773] here?
A: 2000 nM

Q: For `CCCCC/C=C\C[C@@H](O)/C=C/C=C/C=C\[C@@H](O)CCCC(=O)O` [LTB4, Leukotriene B4], which “inhibition of [^3H]LTD4 binding to CysLT2” value (at concentrations up to 10^−6 M, 0.4 nM [^3H]-labeled LTD4) is on record?
A: did not inhibit
